This is an account of results in patent US11021476B2, “Pyrroloquinoline quinone monosodium and method for producing the same, and composition comprising the same” (Mitsubishi Gas Chemical Company, Inc., priority 2016, dated 2021).

Broadly, the Solubility is the concentration that dissolves in the medium under given conditions. Usually solubility stands for how much of the substance goes into solution per volume.

Series [1] can be described thus: Solubility and color of mixtures. The series is classed as physicochemical. How it is done:
Powders were mixed in a proportion shown in Table 3, and the color of the powder was recorded. 1 mL of water was added to a crystal mass of 10 mg at room temperature. […] The aqueous solution after the cooling was centrifuged, and the supernatant liquid was removed. This was diluted with a phosphate buffer, and the solubility was calculated from absorbance at 330 nm.

The next series in a line: Bulk density measurement. The series is classed as physicochemical. The settings on record: 10 mL volumetric flask. How it is done: Bulk density was measured using a 10 mL volumetric flask.
Series [2] is described as follows: Thermal stability test (70° C. color change test). The series is classed as physicochemical. To be noted: 1 mg crystals in 70° C. oven. How it is done: 1 mg of the crystals obtained in each of Examples 1 and 6 and Comparative Example 2 were placed in a 70° C. oven, and a change in color after 2 hours was observed.
A short description of series [3]: Test of penetration into skin. To be noted: 5 mg crystals on pig skin, 80 minutes at 37° C.; [(untreated − treated)/untreated brightness]×100.
Method: The skin of a pig was washed with tap water, and the water was completely wiped off. 5 mg of one of crystals was brought into contact with this skin of the pig and then fixed to the skin by wrapping in plastic wrap. After 80 minutes at 37° C., the tape was peeled, and the skin was washed with tap water to remove the test composition adhering to the skin surface. Evaluation was performed by capturing an image of the test composition by a scanner and measuring a change in the brightness of the skin using image software (product name: Paint (software included with Windows (registered trademark) XP, manufactured by Microsoft Corporation). At this time, the change in the brightness of the skin was calculated by [[brightness of untreated skin−brightness after treatment]/[brightness of untreated skin]]×100.
The nature of series [4]: Reaction with powdered green tea. The series is classed as physicochemical. To be noted: 2 mg powdered green tea + 1 mg crystals + 100 μL water. How it is done:
2 mg of powdered green tea and 1 mg of the crystals obtained in each of Examples 1 and 6 and Comparative Example 2 were mixed. As a model in which the mixed powder was wet, 100 μL of water was added. […] The crystals 2 were very stable and excellent in powder mixing.

The next series can be described thus: Suspension fluidity test. The format is physicochemical. The settings on record: 100 g/L in water, mixed at room temperature, observed at 4° C.
Series [5] is described as follows: Thermal stability test (solubility change at 180° C. for 10 minutes). The format is physicochemical. The settings on record: for State of dissolution after heating at 180° C. for 10 minutes: 1 mg heated on hot plate, then 10 mL water, stirred 15 minutes; for State of dissolution after heating at 180° C. for 10 minutes (with 100 before heating): solubility from absorbance at 330 nm, solubility before heating = 100. The procedure: Whether the solubility of crystals changed by heat treatment was tested. […] At this time, the state was recorded. The aqueous solution after the stirring was filtered through a 0.5 μm filter and diluted to 1/10, and absorbance at 330 nm was measured. A change in the solubility of the crystals before and after the heat treatment was examined by this measurement.

As for `O=C(O)c1cc(C(=O)O)c2c(n1)C(=O)C(=O)c1cc(C(=O)O)[nH]c1-2.[Na].[Na]` [Raw material, pyrroloquinoline quinone disodium, reference compound], in series [1], the “Color in form of powder” value is reported as “Red”.

Compound “Dipyrroloquinoline quinone monosodium [Example 7]” displayed a Bulk specific gravity in “Bulk density measurement” of 0.27 g/mL. In addition, the “Change in color after 2 hours at 70° C.” value in series [2] is given as “No change”. Also, the “Penetration (change in the brightness of the skin)” value in series [3] amounted to 4.3. The “Color change of tea leaves” value in series [4] is “did not change color”. For the same compound, in series [1] (10 mg in 1 mL water, ultrasonic 5 min, 70 degrees 10 min, cooled 30 min at room temperature, absorbance at 330 nm), the Solubility worked out at 2.1 mM. In addition, the “Color in form of powder” value in series [1] was “Black”. The “Fluidity when crystals are added to water” value (“Fluidity” for short) in the series “Suspension fluidity test” was “Yes”. Also, in series [5], the “State of dissolution after heating at 180° C. for 10 minutes” value was “All dissolve” and the “State of dissolution after heating at 180° C. for 10 minutes (with 100 before heating)” value (shortened to “State of dissolution … (with 100 before heating)”) is on record as 100.

As for `O=C(O)c1cc(C(=O)[O-])c2c(n1)C(=O)C(=O)c1cc(C(=O)O)[nH]c1-2.[Na+]` [Comparative Example 2, reference compound], the Bulk specific gravity in the series “Bulk density measurement” amounted to 0.20 g/mL. Further, the “Change in color after 2 hours at 70° C.” value in series [2] is recorded as “Change to black”. For the same compound, the “Penetration (change in the brightness of the skin)” value in series [3] was 1.6. Moreover, the “Color change of tea leaves” value in series [4] was “changed color to orange”. Besides, the “Fluidity” value in the series “Suspension fluidity test” was “No”. The “State of dissolution … (with 100 before heating)” value in series [5] is reported as 71.

The compound `O=C(O)c1cc(C(=O)O)c2c(n1)C(=O)C(=O)c1cc(C(=O)O)[nH]c1-2.[Na]` [Example 1, Pyrroloquinoline Quinone Monosodium] gave a Bulk specific gravity in “Bulk density measurement” of 0.29 g/mL. Also, the “Change in color after 2 hours at 70° C.” value in series [2] is on record as “No change”. Besides, in series [3], the “Penetration (change in the brightness of the skin)” value turned out to be 8.4. Moreover, the “Color change of tea leaves” value in series [4] is “changed color to orange”. In addition, in series [1], the “Color in form of powder” value was “Deep red”. In addition, the solubility at 30 min in series [1] (thermodynamic from solid, 10 mg in 1 mL water, ultrasonic 5 min, 70 degrees 10 min, cooled 30 min at room temperature, absorbance at 330 nm) was 4.5 mM. The “Fluidity” value in “Suspension fluidity test” is listed as “Yes”. In series [5], the “State of dissolution after heating at 180° C. for 10 minutes” value was “All dissolve” and the “State of dissolution … (with 100 before heating)” value was 82.
